Patent publication US9573954B2, “Pyrazolopyrimidine compounds” (University Health Network, priority 2012, dated 2017)
Where two headings read alike, the source gives them in different places.

Tests used:
human TTK = molecular target: T1, human TTK (Homo sapiens, UniProt P33981); assay: TTK inhibition assay (indirect ELISA); format: biochemical
T1 construct: Active TTK was purchased from Invitrogen as an amino terminal GST fusion of full length human TTK; purchased Invitrogen
T1 sequence (P33981 1-857): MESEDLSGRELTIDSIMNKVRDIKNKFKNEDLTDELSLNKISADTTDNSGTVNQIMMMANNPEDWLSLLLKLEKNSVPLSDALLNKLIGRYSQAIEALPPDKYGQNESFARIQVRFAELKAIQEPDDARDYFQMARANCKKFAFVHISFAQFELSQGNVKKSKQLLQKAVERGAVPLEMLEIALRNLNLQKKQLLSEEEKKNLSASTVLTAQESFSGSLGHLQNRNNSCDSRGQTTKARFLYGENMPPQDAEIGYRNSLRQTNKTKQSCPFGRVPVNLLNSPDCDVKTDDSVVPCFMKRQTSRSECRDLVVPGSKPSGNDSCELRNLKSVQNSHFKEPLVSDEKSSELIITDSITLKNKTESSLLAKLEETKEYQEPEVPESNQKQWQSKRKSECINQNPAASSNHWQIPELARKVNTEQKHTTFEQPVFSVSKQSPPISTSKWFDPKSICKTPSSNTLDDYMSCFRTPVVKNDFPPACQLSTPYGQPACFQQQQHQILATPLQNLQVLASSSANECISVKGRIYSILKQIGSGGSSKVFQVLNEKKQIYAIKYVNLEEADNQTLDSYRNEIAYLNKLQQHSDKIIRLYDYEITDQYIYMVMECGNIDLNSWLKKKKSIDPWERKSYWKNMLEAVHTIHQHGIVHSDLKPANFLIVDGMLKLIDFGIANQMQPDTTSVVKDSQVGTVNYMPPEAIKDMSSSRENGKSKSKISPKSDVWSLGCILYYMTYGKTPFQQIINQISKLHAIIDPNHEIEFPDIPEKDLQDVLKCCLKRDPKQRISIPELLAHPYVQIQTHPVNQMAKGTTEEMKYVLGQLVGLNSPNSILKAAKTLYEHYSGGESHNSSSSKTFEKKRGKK
In short: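 Activity detected by indirect ELISA after compounds sat with full-length GST-TTK for 5 min prior to starting the reaction with ATP. IC50 came from a four-parameter logistic curve of % inhibition, calculated against background and uninhibited control wells.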

[1] = system: ovarian cancer cells (OVCAR-3); assay: Cancer cell line growth inhibition, Sulforhodamine B assay, OVCAR-3; format: cell-based; conditions: Homo sapiens, OVCAR-3, OVCAR-3 ovarian cancer cell line; read-out: Cancer Cell Line GI50 Range OVCAR-3
In short: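 OVCAR-3 cells were seeded 24 h before compound addition, then exposed for 5 days to final concentrations of 10 nM to 50 μM in DMEM with 10% FBS. Growth was measured by TCA fixation and sulforhodamine B staining with absorbance at 570 nm. Inhibition was relative to DMSO-only cells, and GI50 came from curve fitting.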

[2] = system: breast cancer cells (MDA-MB-468); assay: Cancer cell line growth inhibition, Sulforhodamine B assay, MDA-MB-468; format: cell-based; conditions: Homo sapiens, MDA-MB-468, MDA-MB-468 breast cancer cell line; read-out: Cancer Cell Line GI50 Range MDA-MB-468
In short: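 MDA-MB-468 cells exposed 5 days to compound at final 10 nM to 50 μM in DMEM with 10% FBS. Growth measured by sulforhodamine B protein staining after TCA fixation, absorbance 570 nm; inhibition relative to DMSO-only cells, GI50 determined for cytotoxic compounds.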

[3] = system: colon cancer cells (HCT116); assay: Cancer cell line growth inhibition, Sulforhodamine B assay, HCT116; format: cell-based; conditions: Homo sapiens, HCT-116, HCT116 colon cancer cell line; read-out: Cancer Cell Line GI50 Range HCT116
In short: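 HCT116 cells, 1000–4000 per well, seeded 24 h ahead, then treated 5 days with compound at 10 nM to 50 μM final in DMEM with 10% FBS. Growth measured by sulforhodamine B staining after TCA fixation, A570; GI50 from inhibition relative to DMSO-only cells.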

[4] = system: Ovarian 2393A tumor initiating cells; assay: Tumor-initiating cell growth inhibition, Alamar Blue assay, ovarian TICs; format: cell-based; conditions: 144 h; Ovarian 2393A TICs, 6 days; read-out: Tumor Initiating Cell GI50 Range Ovarian 2393A
Source text: (§1) Non-tissue or tissue cultured treated T-75 flask and 96-well plates were purchased from VWR. Vitamin B-27 supplement, MEM NEAA (minimum essential medium non essential amino acids), sodium pyruvate, L-glutamine, N2 supplement, penicillin-streptomycin and fungizone/amphotericin B were obtained from Invitrogen. Lipid mixture, heparin and EGF were purchased from Sigma; bFGF from BD Biosciences. Tumor Initiating Cells (TICs) from colon were routinely maintained using non-tissue cultured treated T-75 flasks in DMEM:F12 medium containing 0.2XB-27 supplement, 4 ug/ml heparin, 1×MEM NEAA, 1×sodium pyruvate, 1 mM glutamine, 10 pg/ul bFGF, 20 pg/ul EGF, 1× N2 supplement, lipid mixture, penicillin-streptomycin and fungizone/amphotericin B. Ovarian TICs were routinely maintained using tissue cultured treated T-75 flasks in DMEM:F12 medium containing IXB-27 supplement, 4 ug/ml heparin, 20 pg/ul bFGF, 20 pg/ul EGF and penicillin-streptomycin.
(§2) Compounds described herein were dissolved in DMSO and further diluted in cell culture medium for GI50 determination. Colon TICs were trypsinized and seeded into non-tissue cultured treated 96-well plates with 4,000 cells/well. After 24 h, compound was added into the cell culture at different concentrations, and the final concentration of DMSO was adjusted to 0.1%. Cells were then cultured at 37° C. for 9 days. Ovarian TICs were trypsinized and seeded into tissue cultured treated 96-well plates with 1,000 cells/well. After 24 h, compound was added into the cell culture at different concentrations, and the final concentration of DMSO was adjusted to 0.1%. Cells were then cultured at 37° C. for 6 days. Cell viability was assessed by Alamar Blue assay: 10 ul of Alamar Blue was added into each well. After 4 hours incubation at 37° C., fluorescence was recorded at excitation 544 and emission 590. GI50 (Growth inhibition) was calculated using GraphPad Prism 4.0 software.
(§3) In Table 1 below, GI50 value ranges for compound examples against TICs (Colon 12 and Ovarian 2393A) are given.

[5] = system: Colon 12 tumor initiating cells; assay: Tumor-initiating cell growth inhibition, Alamar Blue assay, colon TICs; format: cell-based; conditions: 216 h; Colon 12 TICs, 9 days; read-out: Tumor Initiating Cell GI50 Range Colon 12
Source text: as §1, §2, §3

[6] = 16 μM ATP (Sigma cat# A7699), read-out: TTK IC50 Range (denoted with an asterisk)
[7] = 100 μM ATP, read-out: TTK IC50 Range

| Compound | IC50 (human TTK; [6]) | GI50 [1] | GI50 [2] | GI50 [3] | GI50 [4] | GI50 [5] | IC50 (human TTK; [7]) |
| --- | --- | --- | --- | --- | --- | --- | --- |
| O=C(NC1CC1)c1ccc(-c2cnn3c(NCC4CCOCC4)nc(Oc4ccccc4)nc23)cc1F [Example C7] | < 100 nM | > 500 nM | > 500 nM | > 500 nM | 100 to 500 nM | 100 to 500 nM | – |
| Cc1cc(-c2cnn3c(NCC4CCOCC4)nc(Nc4ccccc4)nc23)ccc1C(=O)NC1CC1 [Example C10] | < 100 nM | > 500 nM | > 500 nM | > 500 nM | > 500 nM | > 500 nM | – |
| Cc1cc(-c2cnn3c(NCC4CCOCC4)nc(Oc4ccccc4F)nc23)ccc1C(=O)NC1CC1 [Example C20] | < 100 nM | 100 to 500 nM | 100 to 500 nM | ≤ 100 nM | 100 to 500 nM | ≤ 100 nM | – |
| Cc1cc(-c2cnn3c(NCC4CCOCC4)nc(Oc4cccc(F)c4)nc23)ccc1C(=O)NC1CC1 [Example C21] | < 100 nM | ≤ 100 nM | ≤ 100 nM | ≤ 100 nM | ≤ 100 nM | ≤ 100 nM | – |
| Cc1cc(-c2cnn3c(NC[C@H]4CC[C@@H](O)CC4)nc(Oc4cccc(F)c4)nc23)ccc1C(=O)NC1CC1 [Example C24] | < 100 nM | ≤ 100 nM | ≤ 100 nM | ≤ 100 nM | ≤ 100 nM | ≤ 100 nM | – |
| COc1ccc(Oc2nc(NCC3CCOCC3)n3ncc(-c4ccc(C(=O)NC5CC5)c(C)c4)c3n2)c(F)c1 [Example C25] | < 100 nM | 100 to 500 nM | 100 to 500 nM | ≤ 100 nM | 100 to 500 nM | ≤ 100 nM | – |
| Cc1cc(-c2cnn3c(NCCN4CCOCC4)nc(Oc4cccc(F)c4F)nc23)ccc1C(=O)NC1CC1 [Example C26] | < 100 nM | 100 to 500 nM | 100 to 500 nM | ≤ 100 nM | ≤ 100 nM | ≤ 100 nM | – |
| Cc1cc(-c2cnn3c(NCC4(F)CCN(C)CC4)cc(Oc4cccc(F)c4)nc23)ccc1C(=O)NC1CC1 [Example C28] | – | ≤ 100 nM | ≤ 100 nM | ≤ 100 nM | ≤ 100 nM | ≤ 100 nM | < 100 nM |
| Cc1cc(-c2cnn3c(NCCN4CCOCC4)cc(Oc4cccc(F)c4)nc23)ccc1C(=O)NC1CC1 [Example C31, N-cyclopropyl-4-(5-(3-fluorophenoxy)-7-((2-morpholinoethyl)amino)pyrazolo[1,5-a]pyrimidin-3-yl)-2-methylbenzamide] | – | ≤ 100 nM | ≤ 100 nM | ≤ 100 nM | ≤ 100 nM | ≤ 100 nM | < 100 nM |
| Cc1cc(-c2cnn3c(NCCN4CCOCC4)cc(Oc4cccc(F)c4F)nc23)ccc1C(=O)NC1CC1 [Example C32, N-cyclopropyl-4-(5-(2,3-difluorophenoxy)-7-((2-morpholinoethyl)amino)pyrazolo[1,5-a]pyrimidin-3-yl)-2-methylbenzamide] | – | ≤ 100 nM | ≤ 100 nM | ≤ 100 nM | ≤ 100 nM | ≤ 100 nM | < 100 nM |
| Cc1cc(-c2cnn3c(NCC4COC4)cc(N[C@H]4CCCC[C@H]4O)nc23)ccc1C(=O)NC1CC1 [Example C37, N-cyclopropyl-4-(5-(((1S,2R)-2-hydroxycyclohexyl)amino)-7-((oxetan-3-ylmethyl)amino)pyrazolo[1,5-a]pyrimidin-3-yl)-2-methylbenzamide] | – | ≤ 100 nM | ≤ 100 nM | ≤ 100 nM | ≤ 100 nM | ≤ 100 nM | < 100 nM |
| Cc1cc(-c2cnn3c(NCC4CCOCC4)cc(N[C@H](CO)C(C)C)nc23)ccc1C(=O)NC1CC1 [Example C38, (S)-N-cyclopropyl-4-(5-((1-hydroxy-3-methylbutan-2-yl)amino)-7-(((tetrahydro-2H-pyran-4-yl)methyl)amino)pyrazolo[1,5-a]pyrimidin-3-yl)-2-methylbenzamide] | – | ≤ 100 nM | ≤ 100 nM | ≤ 100 nM | ≤ 100 nM | ≤ 100 nM | < 100 nM |
